According to paper PMC2361661 (British Journal of Cancer, 2005):
Where “and” joins values, the source holds several entries; their conditions need not be identical. Identical values can stand only once. Like-named read-outs stand apart in the source and are kept apart here.

What was measured:
ovarian cancer = settings: relapsed ovarian cancer, cited from earlier work
[1] = biological target: T1, thymidylate synthase (TS) (Homo sapiens, UniProt P04818); settings: ref Ford et al, 2002, cited from earlier work
T1 construct: endogenous in cells; host or cells: tissues of treated patients (in vivo)
T1 sequence (P04818 2-313 limits assumed): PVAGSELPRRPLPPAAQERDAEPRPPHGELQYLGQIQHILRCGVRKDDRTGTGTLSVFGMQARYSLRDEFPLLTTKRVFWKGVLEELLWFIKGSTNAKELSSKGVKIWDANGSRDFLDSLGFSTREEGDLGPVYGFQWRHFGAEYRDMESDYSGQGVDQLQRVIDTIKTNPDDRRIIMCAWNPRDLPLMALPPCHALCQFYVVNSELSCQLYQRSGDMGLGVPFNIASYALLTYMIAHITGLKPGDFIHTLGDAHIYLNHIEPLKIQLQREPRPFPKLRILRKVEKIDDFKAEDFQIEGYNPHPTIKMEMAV

[2] = cited from earlier work
[3] = BGC9331 plasma pharmacokinetics by ELISA in phase I patients; settings: for Median Cmax / Median plasma clearance: ±s.d.; for AUClast / Cl_obs / Cmax / HL_Lambda_z / Vz_obs: BGC9331 65 mg m^−2, carboplatin AUC 5
Description: (§1) Prior to each assay the plasma samples were centrifuged at 3000 g for 5 min × 2, to sediment precipitants that would block pipette tips.
(§2) All dilutions required for the ELISA were performed by Multiprobe II automated liquid handling equipment (Perkin-Elmer, Cambridge, UK). […] Following further incubation and washing steps, the optical absorbance was read and plotted using a four-parameter logistic curve fitted by nonlinear regression as previously described ([Aherne et al, 2001]).
(§3) PK analysis was performed using WinNonlin Software, version 3.2 (Pharsight Corp., CA, USA). […] The following PK parameters were evaluated: maximum plasma concentration (Cmax), area under the plasma concentration–time curve (AUC), total body clearance (Cl), volume of distribution at steady state (Vss) and the terminal half-life (t1/2).

clinical = settings: human, plasma
Description: as §1, §2, §3

[4] = design: method as in Plummer et al, 2003; settings: ref Plummer et al, 2003, cited from earlier work; for AUC: mass spectroscopy
[5] = system: human ovarian tumour cell lines; settings: ref Kelland et al, 1995; cited from earlier work
[6] = system: folyl-polyglutamate synthase (FPGS); design: method as in Jackman et al, 1993; settings: compared to RTX; ref Jackman et al, 1993; cited from earlier work
[7] = Carboplatin pharmacokinetics by flameless atomic absorption spectrophotometry (FAAS); settings: free carboplatin, carboplatin AUC 5 with BGC9331
Description: Carboplatin was measured by FAAS. This method has been previously described ([LeRoy et al, 1977]). Samples were analysed on a Perkin-Elmer HGA800, AA300 Flameless atomic absorption spectrophotometer, and a Platinum Lumina HCC lamp (Perkin-Elmer, Beaconsfield, UK).
Calibration standards were prepared individually for each assay batch by adding Carboplatin standards to control human plasma and ultrafiltrate. A blank was made using either plasma or ultrafiltrate only. A range of standards was made ranging from 5 to 50 ng ml^−1 Pt (plasma samples) to 10–150 ng ml^−1 Pt (ultrafiltrates).
For plasma analysis, three QCs were included in duplicate, ranging from low (15ng ml^−1 Pt) to medium (25 ng ml^−1 Pt) and high (45 ng ml^−1 Pt), by diluting stock solutions with plasma. For ultrafiltrate analysis low (20 ng ml^−1 Pt), medium (60 ng ml^−1 Pt) and high (120 ng ml^−1 Pt) QCs and stock solutions were diluted with plasma ultrafiltrate. A run was acceptable if four out of six QCs were within 15% of nominal concentration.

[8] = dose level 1 (BGC9331 40 mg m^−2, carboplatin AUC 5), day 1
[9] = dose level 1 (BGC9331 40 mg m^−2, carboplatin AUC 5), day 8
[10] = dose level 2 (BGC9331 65 mg m^−2, carboplatin AUC 5), day 1
[11] = dose level 2 (BGC9331 65 mg m^−2, carboplatin AUC 5), day 8

Q: What does the source list for `O=c1[nH]cc(F)c(=O)[nH]1` [5-FU, 5-fluorouracil]?
A: response rate (ovarian cancer; ref Look et al, 1995): 14%; peak dUrd elevation ([1]; bolus 5-FU): 235±125%; peak dUrd elevation ([1]; infusional 5-FU): 228±86%

Q: For `C#CCN(Cc1cc2c(=O)[nH]c(C)nc2cc1C)c1ccc(C(=O)N[C@@H](CCc2nnn[nH]2)C(=O)O)c(F)c1` [BGC9331], which “patients with grade 3 or 4 neutropaenia” value ([2]; BGC9331 130 mg m^−2 days 1 and 8 with cisplatin 75 mg m^−2, ref Bilenker et al, 2004) is on record?
A: Its value is “three of the four”.

Q: And the “patients affected by diarrhoea” value ([2]; previous studies, ref Rader et al, 2003)?
A: The value was 36%.

Q: And the “recommended single-agent phase II dose” value ([2]; ref Plummer et al, 2003)?
A: Its value is 130 mg m^−2.

Q: What about the “Median Cmax” value [3, 8] of the same compound?
A: The value was 11.2 ± 2.5 µg/mL and 11.21 µg/mL.

Q: And the Median plasma clearance [3, 8]?
A: The Median plasma clearance was 478 ± 61 mL/h.

Q: What about the “Median Cmax” value [3, 9] of the same compound?
A: Its value is 7.3 ± 5.0 µg/mL.

Q: And the Median plasma clearance [3, 9]?
A: The Median plasma clearance was 971 ± 265 mL/h.

Q: What about the “Median Cmax” value [3, 10] of the same compound?
A: Its value is 16.5 ± 2.4 µg/mL and 16.54 µg/mL.

Q: And the Median plasma clearance [3, 10]?
A: The Median plasma clearance was 1197 ± 580 mL/h.

Q: And the “Median Cmax” value [3, 11]?
A: The value was 10.4 ± 4.0 µg/mL.

Q: And the Median plasma clearance [3, 11]?
A: Its Median plasma clearance is 746 ± 584 mL/h.

Q: What about the AUClast ([3]; patient 4, administration 1) of the same compound?
A: The AUClast was 90.4 µg·mL/h.

Q: And the Cl_obs ([3]; patient 4, administration 1)?
A: The Cl_obs was 1197.5 mL/h.

Q: What about the Cmax ([3]; patient 4, administration 1) of the same compound?
A: The Cmax was 16.8 µg/mL.

Q: What about the HL_Lambda_z ([3]; patient 4, administration 1) of the same compound?
A: Its HL_Lambda_z is 18.2 h.

Q: What about the Vz_obs ([3]; patient 4, administration 1) of the same compound?
A: The Vz_obs was 31423.8 mL.

Q: And the AUClast ([3]; patient 4, administration 2)?
A: The AUClast was 68.4 µg·mL/h.

Q: What about the Cl_obs ([3]; patient 4, administration 2) of the same compound?
A: The Cl_obs was 1646.5 mL/h.

Q: What about the Cmax ([3]; patient 4, administration 2) of the same compound?
A: The Cmax was 10.4 µg/mL.

Q: What about the HL_Lambda_z ([3]; patient 4, administration 2) of the same compound?
A: Its HL_Lambda_z is 27.8 h.

Q: And the Vz_obs ([3]; patient 4, administration 2)?
A: The Vz_obs was 66088.6 mL.

Q: What about the AUClast ([3]; patient 5, administration 1) of the same compound?
A: Its AUClast is 264.6 µg·mL/h.

Q: What about the Cl_obs ([3]; patient 5, administration 1) of the same compound?
A: The Cl_obs was 378.4 mL/h.

Q: What about the Cmax ([3]; patient 5, administration 1) of the same compound?
A: Its Cmax is 16.6 µg/mL.

Q: And the HL_Lambda_z ([3]; patient 5, administration 1)?
A: Its HL_Lambda_z is 25.5 h.

Q: What about the Vz_obs ([3]; patient 5, administration 1) of the same compound?
A: The Vz_obs was 13891.3 mL.

Q: And the AUClast ([3]; patient 5, administration 2)?
A: Its AUClast is 193.3 µg·mL/h.

Q: And the Cl_obs ([3]; patient 5, administration 2)?
A: Its Cl_obs is 549.2 mL/h.

Q: And the Cmax ([3]; patient 5, administration 2)?
A: The Cmax was 16.7 µg/mL.

Q: And the Vz_obs ([3]; patient 5, administration 2)?
A: Its Vz_obs is 17208.1 mL.

Q: And the AUClast ([3]; patient 6, administration 2)?
A: The AUClast was 141.3 µg·mL/h.

Q: And the Cl_obs ([3]; patient 6, administration 2)?
A: The Cl_obs was 746.0 mL/h.

Q: What about the Cmax ([3]; patient 6, administration 2) of the same compound?
A: The Cmax was 9.3 µg/mL.

Q: And the HL_Lambda_z ([3]; patient 6, administration 2)?
A: Its HL_Lambda_z is 28.1 h.

Q: What about the Vz_obs ([3]; patient 6, administration 2) of the same compound?
A: The Vz_obs was 30257.3 mL.

Q: And the AUC (clinical; 40 mg)?
A: Its AUC is 110 µg·h/mL.

Q: And the Cmax (clinical; 40 mg)?
A: Its Cmax is 7.26 µg/mL.

Q: And the AUC (clinical; 65 mg)?
A: Its AUC is 140 µg·h/mL.

Q: And the Cmax (clinical; 65 mg)?
A: Its Cmax is 10.4 µg/mL.

Q: What about the Tmax (clinical; 65 mg) of the same compound?
A: Its Tmax is 30 min.

Q: What about the AUC ([4]; BGC9331 monotherapy 42 mg m^−2) of the same compound?
A: Its AUC is 176 µg·h/mL.

Q: What about the Cmax ([4]; BGC9331 monotherapy 42 mg m^−2) of the same compound?
A: The Cmax was 10.4 µg/mL.

Q: And the AUC ([4]; BGC9331 monotherapy 69 mg m^−2)?
A: The AUC was 322 µg·h/mL.

Q: And the Cmax ([4]; BGC9331 monotherapy 69 mg m^−2)?
A: Its Cmax is 19.1 µg/mL.

Q: For `C#CCN(Cc1ccc2nc(N)[nH]c(=O)c2c1)c1ccc(C(=O)N[C@@H](CCC(=O)O)C(=O)O)cc1` [CB3717, N10-propargyl-5,8-dideazafolic acid], which “cross-resistance to platinum-based agents” value [5] is on record?
A: The value was “non crossresistance”.

Q: What about the “substrate for FPGS” value [6] of the same compound?
A: The value was “relatively poor substrate”.

Q: Which Alpha_HL ([7]; patient 1, dose level 1) does the source give for `N.N.O=C([O-])C1(C(=O)[O-])CCC1.[Pt+2]` [carboplatin] here?
A: The Alpha_HL was 2.2 h.

Q: And the Beta_HL ([7]; patient 1, dose level 1)?
A: The Beta_HL was 50.3 h.

Q: And the CL ([7]; patient 1, dose level 1)?
A: The CL was 8.7 L/h.

Q: And the V2 ([7]; patient 1, dose level 1)?
A: The V2 was 91.2 L.

Q: What about the Vss ([7]; patient 1, dose level 1) of the same compound?
A: The Vss was 123.3 L.

Q: And the Alpha_HL ([7]; patient 3, dose level 1)?
A: The Alpha_HL was 1.2 h.

Q: And the Beta_HL ([7]; patient 3, dose level 1)?
A: The Beta_HL was 8.2 h.

Q: And the CL ([7]; patient 3, dose level 1)?
A: The CL was 4.8 L/h.

Q: And the V2 ([7]; patient 3, dose level 1)?
A: Its V2 is 15.1 L.

Q: And the Vss ([7]; patient 3, dose level 1)?
A: The Vss was 27.1 L.

Q: What about the Alpha_HL ([7]; patient 4, dose level 2) of the same compound?
A: The Alpha_HL was 2.4 h.

Q: And the Beta_HL ([7]; patient 4, dose level 2)?
A: Its Beta_HL is 100.9 h.

Q: And the CL ([7]; patient 4, dose level 2)?
A: The CL was 7.0 L/h.

Q: What about the V2 ([7]; patient 4, dose level 2) of the same compound?
A: Its V2 is 158.5 L.

Q: What about the Vss ([7]; patient 4, dose level 2) of the same compound?
A: Its Vss is 186.5 L.

Q: What about the Alpha_HL ([7]; patient 5, dose level 2) of the same compound?
A: The Alpha_HL was 1.5 h.

Q: What about the Beta_HL ([7]; patient 5, dose level 2) of the same compound?
A: The Beta_HL was 92.0 h.

Q: And the CL ([7]; patient 5, dose level 2)?
A: The CL was 6.0 L/h.

Q: And the V2 ([7]; patient 5, dose level 2)?
A: Its V2 is 101.0 L.

Q: And the Vss ([7]; patient 5, dose level 2)?
A: The Vss was 115.6 L.

Q: And the Alpha_HL ([7]; patient 6, dose level 2)?
A: Its Alpha_HL is 1.8 h.

Q: And the Beta_HL ([7]; patient 6, dose level 2)?
A: Its Beta_HL is 60.4 h.

Q: And the CL ([7]; patient 6, dose level 2)?
A: The CL was 6.7 L/h.

Q: And the V2 ([7]; patient 6, dose level 2)?
A: Its V2 is 88.9 L.

Q: What about the Vss ([7]; patient 6, dose level 2) of the same compound?
A: Its Vss is 109.7 L.

Q: And the Alpha_HL ([7]; patient 14, dose level 3)?
A: The Alpha_HL was 0.4 h.

Q: And the Beta_HL ([7]; patient 14, dose level 3)?
A: Its Beta_HL is 2.6 h.

Q: And the CL ([7]; patient 14, dose level 3)?
A: The CL was 6.1 L/h.

Q: And the V2 ([7]; patient 14, dose level 3)?
A: The V2 was 8.6 L.

Q: What about the Vss ([7]; patient 14, dose level 3) of the same compound?
A: Its Vss is 16.5 L.

Q: Which response rate (ovarian cancer; ref Gore et al, 1995) does the source give for `Cc1nc2ccc(CN(C)c3ccc(C(=O)N[C@@H](CCC(=O)O)C(=O)O)s3)cc2c(=O)[nH]1` [raltitrexed] here?
A: The response rate was 7%.

Q: And the response rate (ovarian cancer; ref Muggia et al, 1998)?
A: The response rate was 11%.

Q: And the “cross-resistance to platinum-based agents” value [5]?
A: The value was “non crossresistance”.

Q: What about the “day on which dUrd reapproaches baseline” value ([1]; RTX on a 21-day cycle) of the same compound?
A: Its value is about 15 days.

Q: And the “peak percentage rise of dUrd” value ([1]; RTX on a 21-day cycle)?
A: The value was 349±128%.
